Assay results: PubChem BioAssay (NCI)
Several values for one entry are separate records, joined by “and”; a condition that tells them apart may be missing. Identical values can stand only once.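 Tested at 5 concentrations; 48 h exposure; 96-well plates; endpoints linearly interpolated, else capped at highest concentration. GI50 is the concentration that inhibits growth by half. TGI denotes the concentration required for complete inhibition of growth.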

Experiments:
Test in all cases: inhibition of tumour cell growth, NCI panel, 48 h
786-0 renal = test system: 786-0 renal
HCT-116 colon = test system: HCT-116 colon
HL-60(TB) leukemia = test system: HL-60(TB) leukemia
K-562 leukemia = test system: K-562 leukemia
KM12 colon = test system: KM12 colon
LOX IMVI melanoma = test system: LOX IMVI melanoma
MALME-3M melanoma = test system: MALME-3M melanoma
SN12C renal = test system: SN12C renal
U251 CNS = test system: U251 CNS
T-47D breast = test system: T-47D breast

Structure (SMILES) | TGI (786-0 renal) | TGI (HCT-116 colon) | TGI (HL-60(TB) leukemia) | TGI (K-562 leukemia) | TGI (KM12 colon) | TGI (LOX IMVI melanoma) | TGI (MALME-3M melanoma) | TGI (SN12C renal) | TGI (U251 CNS) | GI50 (786-0 renal) [µM] | GI50 (HCT-116 colon) [µM] | GI50 (HL-60(TB) leukemia) [µM] | GI50 (K-562 leukemia) [µM] | GI50 (KM12 colon) [µM] | GI50 (LOX IMVI melanoma) [µM] | GI50 (MALME-3M melanoma) [µM] | GI50 (SN12C renal) [µM] | GI50 (T-47D breast) [µM] | TGI (T-47D breast) [µM] | GI50 (U251 CNS) [µM]
CC(=O)OC1(C)C(=O)OC1(C)C(C)=O (stereo not given) | > 100 µM | > 100 µM | > 100 µM | > 100 µM | > 100 µM | > 100 µM | > 100 µM | > 100 µM | > 100 µM | – | – | – | – | – | – | – | – | – | – | –
O=C(Cc1cccc(OC(F)(F)F)c1)Nc1ccc(CCCCc2nnc(NC(=O)Cc3ccccn3)s2)nn1 | 27.5 µM | > 100 µM | > 100 µM | > 100 µM | > 100 µM | > 100 µM | > 100 µM | > 100 µM | – | 11.4 | 16.2 | 8.34 | 16.9 | 14.1 | 25.9 | 28.6 | 18.5 | 3.46 | 26.5 | –
NC(=O)C(c1ccccc1)N1CCOCC1 (stereo not given) | > 100 µM | > 100 µM | > 100 µM | > 100 µM | > 100 µM | > 100 µM | > 100 µM | > 100 µM | > 100 µM | – | – | – | – | – | – | – | – | – | – | –
Cc1ccc(SC2=CC(=O)c3nc4ccccc4c4ccnc2c34)cc1 | > 58.1 µM | > 56.8 µM | – | > 100 µM | 47.5 µM | > 100 µM | > 69.5 µM | > 100 µM | > 100 µM | 24.5 | 22.7 | – | 35.5 | 20.9 | 28.5 | 46.7 | 66.6 | 24.3 | 47.2 | 30.2
CC(=O)OCC1OC(OC2CC3C(C)(C)C(O)CC[C@]3(C)C3CCC45CC4(CC[C@H]5C(C)CC(O)C4OC4(C)C)[C@]23C)C(O)C(O)C1O (stereo not given in full) | 14.9 µM and 18.9 µM | 16.3 µM and 21.8 µM | 3.67 µM and 4.18 µM | 4.12 µM and 16.2 µM | 15.6 µM and 17.3 µM | 12.1 µM and 3.17 µM | 16.5 µM and 20.8 µM | 15.2 µM and 21.6 µM | 10.3 µM and 16.5 µM | 5.67 | 3.57 | 1.73 | – | 4.66 | 1.52 | 4.52 | – | – | – | 5.17
O=C(CC(=O)N1N=C(N2c3ccccc3Sc3ccccc32)CC1c1ccccc1)Nc1ccc(Cl)cc1 (stereo not given) | > 100 µM | > 100 µM | – | – | > 100 µM | > 100 µM | > 100 µM | > 100 µM | > 100 µM | – | – | – | – | – | – | – | – | – | – | –
CSc1ccc2c3c(n(C[C@H](O)CO)c(=O)c2c1)-c1ccccc1C3=O | 9.22 µM | 2.35 µM | 11.7 µM | > 100 µM | 10.3 µM | – | 22 µM | 13.6 µM | 7.49 µM | 2.52 | 0.742 | 1.81 | 1.72 | 2.26 | – | 4.3 | 1.94 | 2.85 | 45.8 | 1.19
COc1cc2c(cc1O)CC13CCC(=O)N1CCc1cc(OC)c(O)c-2c13 (stereo not given) | > 68.1 µM | > 68.1 µM | > 68.1 µM | > 68.1 µM | – | > 68.1 µM | > 68.1 µM | > 68.1 µM | – | – | – | – | – | – | – | – | – | – | – | –
COc1ccc(/C=C\c2cc(OC)c(OC)c(OC)c2)cc1OC(=O)CCC(=O)O | > 100 µM | – | < 0.0001 µM | – | – | > 100 µM | – | > 100 µM | – | 0.0121 | – | – | – | – | – | – | – | – | 97.1 | –
COc1ccccc1C#Cc1ccccc1C#CCCCCCC#Cc1ccccc1C#Cc1ccccc1OC | > 100 µM | > 100 µM | – | > 100 µM | > 100 µM | > 100 µM | > 100 µM | > 100 µM | > 100 µM | > 100 | 58 | – | 31 | 75 | 98.1 | > 100 | > 100 | 6.75 | > 100 | 97.1
CC#CC1/C(=C\C(=O)OC)CCCC1O (stereo not given) | > 100 µM | > 100 µM | > 100 µM | > 100 µM | > 100 µM | – | > 100 µM | > 100 µM | > 100 µM | – | – | – | – | – | – | – | – | – | – | –
Cc1cc(NS(=O)(=O)c2ccc(NC(=O)c3cccc4c(Nc5ccc(S(=O)(=O)N=C(N)N)cc5)c5ccccc5nc34)cc2)no1 | > 100 µM | > 100 µM | > 100 µM | > 100 µM | > 100 µM | > 100 µM | > 100 µM | > 100 µM | > 100 µM | – | – | – | – | – | – | – | – | – | – | –
CCOC(=O)C1SC(=Nc2ccc(Cl)c(Cl)c2)N=C1C (stereo not given) | 31.3 µM | – | 59.7 µM | 32.5 µM | > 100 µM | 63.9 µM | > 100 µM | 53 µM | > 100 µM | – | – | – | – | – | – | – | – | – | – | –
CC1=CCC23C(C1)OC(Br)(C=CC2(C)O)C3(C)C (stereo not given) | > 100 µM | > 100 µM | > 100 µM | > 100 µM | > 100 µM | > 100 µM | > 100 µM | > 100 µM | – | – | – | – | – | – | – | – | – | – | – | –
Nc1c(C(=O)Nc2ccccc2)[n+]([O-])c2ccccc2[n+]1[O-] | 27.1 µM | – | 90.8 µM | > 100 µM | 30.4 µM | 28.6 µM | – | 31.4 µM | 26.3 µM | – | – | – | – | – | – | – | – | – | – | –
c1ccc2c(c1)[nH]c1cnc3c4cccnc4[nH]c3c12 | 31.7 µM | 30.8 µM | 35.5 µM | 46.4 µM | – | 45 µM | 49 µM | 34.1 µM | – | – | – | – | – | – | – | – | – | – | – | –
Cc1ccc(-c2cc(C3=CC(=O)C=CC3=O)n(-c3ccc(S(N)(=O)=O)cc3)n2)cc1 | 58.8 µM | 33 µM | > 100 µM | > 100 µM | > 100 µM | > 100 µM | – | > 100 µM | > 100 µM | 26.6 | 17.3 | 37.3 | 34.4 | 24 | 31.2 | – | 58.7 | 46.8 | > 100 | 42.4
C=CCC(N[C@H](CO)c1ccccc1)c1cn(C(=O)OCC)c2ccccc12 (stereo not given in full) | 28.9 µM | 28 µM | – | 33.2 µM | 34.8 µM | 30.1 µM | – | 32.7 µM | 33.2 µM | 15.2 | 14.7 | – | 8.51 | 16.7 | 15.9 | – | 18.3 | 25.1 | > 100 | 17.8
Cc1cc(=O)oc2cc(OCc3c(F)cccc3Cl)ccc12 | 40.2 µM | > 100 µM | > 100 µM | – | – | > 100 µM | > 100 µM | > 100 µM | 30.1 µM | – | – | – | – | – | – | – | – | – | > 100 | –
